In patent publication US8846860B2, “Methods of decorating hydroxyapatite biomaterials with modular biologically active molecules” (Wisconsin Alumni Research Foundation, priority 2009, dated 2014):
Non-standard residues stand in square brackets, D forms with d. No end group written: not given here. Gla = N[C@@H](CC(C(=O)O)C(=O)O)C(=O)O

Tests used:
[1] = test system: hMSCs; assay: Alkaline phosphatase (ALP) activity in hMSCs; assay type: cell-based, human; conditions: soluble peptide (50 μg in 500 μl) with osteogenic supplements, hMSCs on TCP, day 12
Protocol: hMSCs (Cambrex, Walkersville, Md., passages 5-6) were cultured in mesenchymal stem cell growth medium (MSCGM: Cambrex) consisting of MSC Basal Medium supplemented with 10% fetal bovine serum, L-glutamine, 100 units/ml penicillin, and 0.1 mg/ml streptomycin. 2.5×10^4 hMSCs were seeded onto either tissue culture-treated polystyrene (TCP) or four different types of experimental substrates (1 cm^2) (PLG, HA-coated PLG, eBGu3-treated HA coating, or eBGa3-treated HA coating). hMSCs were allowed to attach to each substrate overnight, then cultured in MSCGM with osteogenic culture supplements (OS) (0.1 μM dexamethasone, 50 μg/ml ascorbic acid, and 10 mM β-glycerophosphate) for 24 days. The effects of soluble peptides included in culture medium were evaluated by adding 50 μg of eBGu3 or eBGa3 peptides to hMSC cultures on TCP in 500 μl of medium with or without osteogenic culture supplements. […]
The biological activity of modular peptides was initially assayed by their ability to enhance ALP activity in hMSCs. […] ALP activity was measured at 405 nm, and calculated as the ratio of p-nitrophenol released to total DNA concentration (nmol/min/μg DNA). To determine the amount of total DNA in each well, the cell nuclei were disrupted by addition of the aforementioned lysis buffer followed by centrifugation, and quantified using the CyQUANT Assay Kit (Molecular Probes, Eugene, Oreg.).

[2] = test system: hMSCs; assay: Mineralized tissue formation by hMSCs (Alizarin Red-S staining); assay type: cell-based, human; conditions: soluble peptide (50 μg in 500 μl) with osteogenic supplements, hMSCs on TCP, day 20
Protocol: hMSCs (Cambrex, Walkersville, Md., passages 5-6) were cultured in mesenchymal stem cell growth medium (MSCGM: Cambrex) consisting of MSC Basal Medium supplemented with 10% fetal bovine serum, L-glutamine, 100 units/ml penicillin, and 0.1 mg/ml streptomycin. 2.5×10^4 hMSCs were seeded onto either tissue culture-treated polystyrene (TCP) or four different types of experimental substrates (1 cm^2) (PLG, HA-coated PLG, eBGu3-treated HA coating, or eBGa3-treated HA coating). hMSCs were allowed to attach to each substrate overnight, then cultured in MSCGM with osteogenic culture supplements (OS) (0.1 μM dexamethasone, 50 μg/ml ascorbic acid, and 10 mM β-glycerophosphate) for 24 days. The effects of soluble peptides included in culture medium were evaluated by adding 50 μg of eBGu3 or eBGa3 peptides to hMSC cultures on TCP in 500 μl of medium with or without osteogenic culture supplements. In each experimental and control sample, whole volume medium changes were performed every 4 days by replacement with fresh medium and collected medium was used for BMP-2 and OCN ELISA assays.
Characterization of mineralized tissue growth was performed via Alizarin Red-S (ARS) staining at day 20. […] For quantification of staining, 400 μl 10% (v/v) acetic acid was added to each well for 30 minutes with shaking. […] Aliquots (100 μl) of the supernatant were read in triplicate at 405 nm in 96-well plate reader.

[3] = Binding of VEGF-OCN and VEGF-mimic to HA particle / HA slab
Protocol: To measure the binding efficiency of modular peptides to the HA-coated PLG films and to gain preliminary insight into the properties that influence modular peptide immobilization, we first exposed 1 cm^2 HA-coated PLG films to PBS solutions containing 500 μg (1 mg/ml) of 5(6) FAM-conjugated eBMP-2, eBGu1, eBGu3, eBGa1, or eBGa3 modular peptide solution (See Table 1 for definitions of these abbreviations). The films were incubated in peptide solutions with constant agitation for 4 hours at 37° C., and the amount of free peptide remaining was determined by measuring the fluorescence emission of the solution (excitation: 494 nm; emission 519 nm) using a Synergy HT Multi-Detection Microplate Reader (BioTek, Winooski, Vt.), and comparing this emission to standard samples with known concentrations of 5(6)-FAM. To further characterize surface immobilization of the peptide with the highest binding efficiency—the eBGa3 peptide—1 cm^2 HA-coated films were incubated in various concentrations (50-750 μM) of 5(6)-FAM-conjugated eBGa3 peptide for 4 hours with constant agitation at 37° C. The amount of peptide bound to HA-coated film was again determined by fluorescence analysis, as described above.
The binding behavior of the peptides (both modular peptide, VEGF-OCN (SEQ ID NO:18), and VEGF-mimic) were analyzed and compared as described above. The amount of bound VEGF-OCN on the HA particle increased with peptide concentration and reached saturation at 15 μM (FIG. 8A).

[4] = test system: mouse yolk sac endothelial C166-GFP cells; assay: C166-GFP cell proliferation with soluble peptides (CYQUANT); assay type: cell-based; conditions: soluble peptide, 48 hours of stimulation, compared to a control
Protocol: To determine biological activity of VEGF portion for promoting cell proliferation, mouse yolk sac endothelial C166-GFP cells were seeded at a density of 3.12×10^3 cells/cm^2 (1×10^3 cells per well) in 96-well plate, allowed to attach for six hours, and then stimulated with either VEGF-OCN or VEGF-mimic After 48 hours of stimulation, optical micrographs were taken using Olympus IX-51 microscope and cell numbers were determined by CYQUANT assay.

[5] = test system: mouse yolk sac endothelial C166-GFP cells; assay: C166-GFP cell proliferation on peptide-treated HA slabs (CYQUANT); assay type: cell-based; conditions: peptide-treated HA slab, 2-day culture, compared to control
Protocol: Cells were again seeded at a density of 2×10^4 cells/cm^2 (4×10^4 cells per well) in 24-well plate. Prior to seeding, HA slabs (1 cm×1 cm) were incubated in peptide solution (PBS) for four hours at 37° C. and copiously rinsed with deionized water, and then placed in a well of the 24-well plate. After 1-day culture, cells were treated with 2 μM calcein AM solution, and imaged using Olympus IX-51 microscope.
Additionally, a cell number count of the C166-GFP cells as cultured in the presence of VEGF-OCN or VEGF mimic was determined For the cell count, cells were seeded at a density of 5×10^3 cells/cm^2 (1×10^4 cells per well) in a 24-well plate. After 2-day culture, cells were detached from the HA slab and cell number was assessed using CYQUANT assay.

Row | amount bound to HA slab ([3]; HA slab, qualitative comparison) | peptide concentration at which bound amount reached saturation ([3]; HA particle) [µM] | time to complete binding to HA particle ([3]; HA particle) | Substance | effect on ALP activity [1] | effect on mineralized tissue formation [2] | cell number [4] | cell number [5]
1 | – | – | – | KIPKASSVPTELSAISTLYLAAAAEPRREVAEL [eBGu3] | no significant differences between the positive effects of eBGu3 and eBGa3 | no significant differences between the positive effects of eBGu3 and eBGa3 | – | –
2 | – | – | – | KIPKASSVPTELSAISTLYLAAAAγEPRRγEVAγEL (KIPKASSVPTELSAISTLYLAAAA[Gla]PRR[Gla]VA[Gla]L-NH2; N-terminus assumed; SMILES CC[C@H](C)[C@H](NC(=O)[C@H](C)NC(=O)[C@H](CO)NC(=O)[C@H](CC(C)C)NC(=O)[C@H](CCC(=O)O)NC(=O)[C@@H](NC(=O)[C@@H]1CCCN1C(=O)[C@@H](NC(=O)[C@H](CO)NC(=O)[C@H](CO)NC(=O)[C@H](C)NC(=O)[C@H](CCCCN)NC(=O)[C@@H]1CCCN1C(=O)[C@@H](NC(=O)[C@@H](N)CCCCN)[C@@H](C)CC)C(C)C)[C@@H](C)O)C(=O)N[C@@H](CO)C(=O)N[C@H](C(=O)N[C@@H](CC(C)C)C(=O)N[C@@H](Cc1ccc(O)cc1)C(=O)N[C@@H](CC(C)C)C(=O)N[C@@H](C)C(=O)N[C@@H](C)C(=O)N[C@@H](C)C(=O)N[C@@H](C)C(=O)N[C@@H](CC(C(=O)O)C(=O)O)C(=O)N1CCC[C@H]1C(=O)N[C@@H](CCCNC(=N)N)C(=O)N[C@@H](CCCNC(=N)N)C(=O)N[C@@H](CC(C(=O)O)C(=O)O)C(=O)N[C@H](C(=O)N[C@@H](C)C(=O)N[C@@H](CC(C(=O)O)C(=O)O)C(=O)N[C@@H](CC(C)C)C(N)=O)C(C)C)[C@@H](C)O) [eBGa3] | significantly increased ALP activity | significantly increased | – | –
3 | much less than that of VEGF-OCN | – | – | KLTWQELYQLKYKGI [VEGF-mimic, First synthesized by Pedon, et al., inspired by the VEGF helical region, reference compound] | – | – | increase in cell number to the similar extent when compared to a control | –
4 | – | 15 | completed within five minutes | KLTWQELYQLKYKGI-GGGAAAA-γEPRRγEVAγEL (KLTWQELYQLKYKGIGGGAAAA[Gla]PRR[Gla]VA[Gla]L) [VEGF-OCN] | – | – | increase in cell number to the similar extent when compared to a control | promoted cell proliferation
